Structures can show the parent of a compound that is named as a salt. Where two headings read alike, the source gives them in different places.
How the values were obtained:
Kv1.5 = settings: in Figure 2, no reference given, cited from earlier work
hKv1.5 potassium channel = hKv1.5 potassium channel (Homo sapiens, UniProt P22460); test: Whole-cell patch clamp assay on HEK 293 cells stably expressing hKv1.5; settings: hKv1.5 IC50, whole-cell patch clamp, HEK 293 cells expressing hKv1.5, 25 °C, mean ± SD
SD rats [1] = test: CaCl2-ACh induced AF model; type: in vivo, rat
SD rats [2] = type: in vivo, rat
[3] = Single-dose pharmacokinetics study; type: in vivo; settings: beagle dogs, mean ± SD, n = 6
guinea pigs = test: Preliminary safety evaluation by 12-lead electrocardiogram; type: in vivo
[4] = both sexes, beagle, dog, plasma, iv, 1 mg/kg, i.v. 1.00 mg/kg
[5] = cumulative i.v. 3 × 10^−7 to 3 × 10^−5 mol/kg

Chain of hKv1.5 potassium channel (P22460 whole entry): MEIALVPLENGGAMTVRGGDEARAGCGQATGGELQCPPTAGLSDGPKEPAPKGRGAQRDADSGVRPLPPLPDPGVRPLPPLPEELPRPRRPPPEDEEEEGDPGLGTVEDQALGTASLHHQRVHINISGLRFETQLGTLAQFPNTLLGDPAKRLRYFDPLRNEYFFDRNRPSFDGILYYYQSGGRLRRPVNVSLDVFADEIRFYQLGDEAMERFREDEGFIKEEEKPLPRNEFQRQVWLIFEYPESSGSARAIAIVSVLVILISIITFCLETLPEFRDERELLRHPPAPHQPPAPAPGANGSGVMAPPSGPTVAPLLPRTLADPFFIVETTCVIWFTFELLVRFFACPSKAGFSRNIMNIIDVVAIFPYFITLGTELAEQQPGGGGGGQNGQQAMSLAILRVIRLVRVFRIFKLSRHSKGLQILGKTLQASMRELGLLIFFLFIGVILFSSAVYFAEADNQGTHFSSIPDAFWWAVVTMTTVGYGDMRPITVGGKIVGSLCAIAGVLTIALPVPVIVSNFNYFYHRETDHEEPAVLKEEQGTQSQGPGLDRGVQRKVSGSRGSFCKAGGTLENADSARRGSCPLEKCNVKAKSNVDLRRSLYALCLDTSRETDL

SMILES: COc1ccc(CC(=O)NCc2ccccc2-c2ccccc2C(=O)NCCc2cccnc2)cc1 [AVE-0118]
- IC50 (Kv1.5; known Kv1.5 inhibitors): 1.1 µM

SMILES: COc1ccc(NC(=O)C2CCN(Cc3ccccc3)CC2)cc1 [DDO-02001, 1-benzyl-N-(4-methoxyphenyl) piperidine-4-carboxamide]
- IC50 (hKv1.5 potassium channel): 17.7 µM

SMILES: COc1ccc(NC(=O)C2CCN(Cc3nc4ccccc4o3)CC2)cc1 [DDO-02002, 1-(benzo[d]oxazol-2-ylmethyl)-N-(4-methoxyphenyl) piperidine-4-carboxamide]
- melting point: 190 to 194 °C
- IC50 (hKv1.5 potassium channel): 8.96 ± 1.15 µM

SMILES: Cl.Cl.c1ccc(CNC2CCN(Cc3nc4ccccc4o3)CC2)cc1 [DDO-02004, 1-(benzo[d]oxazol-2-ylmethyl)-N-benzylpiperidin-4-amine dihydrochloride]
- melting point: > 250 °C
- IC50 (hKv1.5 potassium channel): 0.95 ± 0.13 µM

SMILES: COc1ccc(CNC2CCN(Cc3nc4ccccc4o3)CC2)cc1.Cl.Cl [DDO-02005, 1-(benzo[d]oxazol-2-ylmethyl)-N-(4-methoxybenzyl)piperidin-4-amine dihydrochloride]
- atrial ERP (AERP) (SD rats [1]; AF rats, 2.5 mg/kg i.p.): increased to normal level
- ventricle ERP (VERP) (SD rats [1]; AF rats, 2.5 mg/kg i.p.): increased to normal level
- duration of AF (SD rats [1]; rats, 0.625, 1.25, 2.5 mg/kg i.p., Day 4 to Day 7): shortened significantly
- AF therapeutic effect compared with dronedarone (SD rats [1]; rats, dronedarone 1.25 mg/kg i.p. as positive control): better than that of dronedarone
- increase of aconitine required to cause arrhythmia versus model group (SD rats [2]; 0.1 mg/kg i.v.): 2%
- increase of aconitine required to cause arrhythmia versus model group (SD rats [2]; 1 mg/kg i.v.): 53%
- increase of aconitine required to cause arrhythmia versus model group (SD rats [2]; 3 mg/kg i.v.): 56%
- increase of aconitine required to cause arrhythmia versus model group (SD rats [2]; 9 mg/kg i.v.): 60%
- CL ([3]; i.v. 1.00 mg/kg, 1 mg/kg): 97.2 ± 24 mL/min/kg
- CL ([3]; p.o. 1.25 mg/kg): 608.5 ± 42.3 mL/min/kg
- Cmax ([3]; p.o. 1.25 mg/kg, 1.25 mg/kg): 1.27 ± 0.40 ng/mL
- t1/2 ([3]; p.o. 1.25 mg/kg, 1.25 mg/kg): 6.25 ± 2.40 h
- clearance [3, 4]: 97.2 mL/min/kg
- half-life [3, 4]: 3.23 ± 1.07 h
- Cmax ([3]; both sexes, beagle, dog, plasma, iv, 1 mg/kg, i.v. 1.00 mg/kg, read-out: Cmax): 90.2 ± 28.8 ng/mL
- half-life ([3]; both sexes, beagle, dog, plasma, po, 1.25 mg/kg, p.o. 1.25 mg/kg): 6.25 h
- Cmax ([3]; both sexes, beagle, dog, plasma, po, 1.25 mg/kg, p.o. 1.25 mg/kg, read-out: Cmax): 1.27 ng/mL
- AUC(0-t) ([3]; both sexes, dog, plasma, iv, i.v. 1.00 mg/kg): 178 ± 39.3 ng·h/mL
- AUC(0-t) ([3]; both sexes, dog, plasma, po, p.o. 1.25 mg/kg): 4.41 ± 0.69 ng·h/mL
- overall preliminary safety compared with Azimilide (guinea pigs; 12-lead electrocardiogram): safer than Azimilide
- effect on QT dispersion (QTd), compared with Azimilide (guinea pigs; [5]): less effect
- effect on QTcd, compared with Azimilide (guinea pigs; [5]): less effect
- heart rate of guinea pigs (guinea pigs; [5]): slowed down obviously
- heart rate, compared with Azimilide (guinea pigs; [5]): no statistically significant differences
- prolonging QT interval, compared with Azimilide (guinea pigs; [5]): no statistically significant differences
- prolonging QTc interval, compared with Azimilide (guinea pigs; [5]): no statistically significant differences
- IC50 (hKv1.5 potassium channel): 0.72 ± 0.08 µM

SMILES: Fc1ccc(CNC2CCN(Cc3nc4ccccc4o3)CC2)cc1 [DDO-02006, 1-(benzo[d]oxazol-2-ylmethyl)-N-(4-fluorobenzyl) piperidin-4-amine dihydrochloride]
- IC50 (hKv1.5 potassium channel): 3.24 ± 0.29 µM

SMILES: COc1ccccc1CNC1CCN(Cc2nc3ccccc3o2)CC1 [DDO-02007, 1-(benzo[d]oxazol-2-ylmethyl)-N-(2-methoxybenzyl)piperidin-4-amine dihydrochloride]
- IC50 (hKv1.5 potassium channel): > 20 µM

SMILES: Cc1ccc(CNC2CCN(Cc3nc4ccccc4o3)CC2)cc1 [DDO-02008, 1-(benzo[d]oxazol-2-ylmethyl)-N-(4-methylbenzyl)piperidin-4-amine dihydrochloride]
- IC50 (hKv1.5 potassium channel): > 20 µM

SMILES: c1ccc(CCNC2CCN(Cc3nc4ccccc4o3)CC2)cc1 [DDO-02009, 1-(benzo[d]oxazol-2-ylmethyl)-N-phenethylpiperidin-4-amine hydrochloride]
- IC50 (hKv1.5 potassium channel): > 20 µM

SMILES: CS(=O)(=O)Nc1cccc([C@H](c2ccc(F)cc2)C(c2cccnc2)c2cccnc2)n1 [MK-0448]
- IC50 (Kv1.5; known Kv1.5 inhibitor): 0.0108 µM

SMILES: Cc1ccc(S(=O)(=O)Nc2ccccc2C(=O)N(Cc2ccccc2)Cc2cccnc2)cc1 [S-0100176]
- IC50 (Kv1.5; known Kv1.5 inhibitors): 0.7 µM

SMILES: COc1ccc(CCO[C@@H]2CCCC[C@H]2N2CC[C@@H](O)C2)cc1OC [Vernakalant hydrochloride]
- IC50 (Kv1.5; known Kv1.5 inhibitors): 13 µM
